Data published in US20120245137A1 (Zalicus Pharmaceuticals Ltd., priority 2009, published 2012).
Like-named read-outs stand apart in the source and are kept apart here.

Legend:
[1] = molecular target: N-type calcium channel subunits (α1B, α2δ, and β3a) (Homo sapiens, UniProt Q00975); assay: Block of Cav2.2 channel, whole cell voltage clamp, manual and PatchXpress; type: cell-based; details: Table 5; table follows Assay Example 3 (whole cell voltage clamp / PatchXpress); assay not given
Summary of the method: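 Percent block taken as current amplitude ratio with versus without compound, applied in rising doses; IC50 fitted where one cell received multiple doses. Protocol: 50 ms pulses to +20 mV at 0.067 Hz from […] or −90 mV holding; P/n leak subtraction, no junction-potential correction; manual and PatchXpress recordings.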

male CF1 mice = assay: 6 Hz psychomotor seizure model of partial epilepsy; type: in vivo; set-up: concentration or dose not given beside the values; details: 6 Hz 32 mA corneal stimulus
Text: Compounds can also be evaluated for the protection against seizures induced by a 6 Hz, 0.2 ms rectangular pulse width of 3 s duration, at a stimulus intensity of 32 mA (CC97) applied to the cornea of male CF1 mice (20-30 g) according to procedures described by Barton et al, “Pharmacological Characterization of the 6 Hz Psychomotor Seizure Model of Partial Epilepsy,” Epilepsy Res. 47(3):217-27 (2001). Seizures are characterised by the expression of one or more of the following behaviours: stun, forelimb clonus, twitching of the vibrissae and Straub-tail immediately following electrical stimulation.

mice [2] = details: mouse, in vivo
Procedure: (§2) In mice, the rotarod procedure (Dunham and Miya, J. Am. Pharmacol. Assoc. 46:208-209 (1957)) is used to disclose minimal muscular or neurological impairment (MMI). When a mouse is placed on a rod that rotates at a speed of 6 rpm, the animal can maintain its equilibrium for long periods of time. The animal is considered toxic if it falls off this rotating rod three times during a 1-min period.

[3] = molecular target: human α1G T-type channels (Homo sapiens, UniProt O43497); assay: T-type calcium channel block, whole cell patch clamp, α1G; type: cell-based; details: HEK cells stably expressing human α1G; mainly non-inactivated protocol; values above 10,000 nM represented as 10000
Summary of the method: (§1)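 Using standard patch-clamp, T-type currents were recorded from stably transfected human α1G or α1H HEK 293 cells. Separate non-inactivating and inactivation voltage protocols distinguished resting from voltage-dependent block by locally applied compound in 0.1-0.01% DMSO.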

[4] = molecular target: human α1H T-type channels (Homo sapiens, UniProt O95180); assay: T-type calcium channel block, whole cell patch clamp, α1H; type: cell-based; details: HEK cells stably expressing human α1H; mainly non-inactivated protocol; values above 10,000 nM represented as 10000
Summary of the method: as §1

mice [5] = assay: Mouse rotarod assay; details: rod at 6 rpm
Procedure: as §2

T-type calcium channel = assay: T-type channel blocking activity as summarised in text (subunit not stated); type: cell-based, human; details: Table 4
Procedure: T-type calcium channel blocking activity was assayed in human embryonic kidneycells, HEK 293 (Invitrogen), stably transfected with the T-type calcium channel subunits. Briefly, cells were cultured in Dulbecco's modified eagle medium (DMEM) supplemented with 10% fetal bovine serum, 200 U/ml penicillin, and 0.2 mg/mL streptomycin at 37° C. with 5% CO2. At 85% confluency, cells were split with 0.25% trypsin/1 mM EDTA and plated at 10% confluency on glass coverslips. At 12 hours, the medium was replaced, and the cells stably transfected using a standard calcium phosphate protocol and the appropriate calcium channel cDNA's. Fresh DMEM was supplied, and the cells transferred to 28° C./5% CO2. Cells were incubated for 1 to 2 days prior to whole cell recording.
Standard patch-clamp techniques were employed to identify blockers of T-type currents. Briefly, previously described HEK cell lines stably expressing human α1G, α1H, and α1I T-type channels were used for all the recordings (passage #: 4-20, 37° C., 5% CO2). Whole cell patch clamp experiments were performed using an Axopatch 200B amplifier (Axon Instruments, Burlingame, Calif.) linked to a personal computer equipped with pCLAMP software. Data were analyzed using Clampfit (Axon Instruments) and SigmaPlot 4.0 (Jandel Scientific). […]

human α1G T-type channels, sequence (O43497 whole entry): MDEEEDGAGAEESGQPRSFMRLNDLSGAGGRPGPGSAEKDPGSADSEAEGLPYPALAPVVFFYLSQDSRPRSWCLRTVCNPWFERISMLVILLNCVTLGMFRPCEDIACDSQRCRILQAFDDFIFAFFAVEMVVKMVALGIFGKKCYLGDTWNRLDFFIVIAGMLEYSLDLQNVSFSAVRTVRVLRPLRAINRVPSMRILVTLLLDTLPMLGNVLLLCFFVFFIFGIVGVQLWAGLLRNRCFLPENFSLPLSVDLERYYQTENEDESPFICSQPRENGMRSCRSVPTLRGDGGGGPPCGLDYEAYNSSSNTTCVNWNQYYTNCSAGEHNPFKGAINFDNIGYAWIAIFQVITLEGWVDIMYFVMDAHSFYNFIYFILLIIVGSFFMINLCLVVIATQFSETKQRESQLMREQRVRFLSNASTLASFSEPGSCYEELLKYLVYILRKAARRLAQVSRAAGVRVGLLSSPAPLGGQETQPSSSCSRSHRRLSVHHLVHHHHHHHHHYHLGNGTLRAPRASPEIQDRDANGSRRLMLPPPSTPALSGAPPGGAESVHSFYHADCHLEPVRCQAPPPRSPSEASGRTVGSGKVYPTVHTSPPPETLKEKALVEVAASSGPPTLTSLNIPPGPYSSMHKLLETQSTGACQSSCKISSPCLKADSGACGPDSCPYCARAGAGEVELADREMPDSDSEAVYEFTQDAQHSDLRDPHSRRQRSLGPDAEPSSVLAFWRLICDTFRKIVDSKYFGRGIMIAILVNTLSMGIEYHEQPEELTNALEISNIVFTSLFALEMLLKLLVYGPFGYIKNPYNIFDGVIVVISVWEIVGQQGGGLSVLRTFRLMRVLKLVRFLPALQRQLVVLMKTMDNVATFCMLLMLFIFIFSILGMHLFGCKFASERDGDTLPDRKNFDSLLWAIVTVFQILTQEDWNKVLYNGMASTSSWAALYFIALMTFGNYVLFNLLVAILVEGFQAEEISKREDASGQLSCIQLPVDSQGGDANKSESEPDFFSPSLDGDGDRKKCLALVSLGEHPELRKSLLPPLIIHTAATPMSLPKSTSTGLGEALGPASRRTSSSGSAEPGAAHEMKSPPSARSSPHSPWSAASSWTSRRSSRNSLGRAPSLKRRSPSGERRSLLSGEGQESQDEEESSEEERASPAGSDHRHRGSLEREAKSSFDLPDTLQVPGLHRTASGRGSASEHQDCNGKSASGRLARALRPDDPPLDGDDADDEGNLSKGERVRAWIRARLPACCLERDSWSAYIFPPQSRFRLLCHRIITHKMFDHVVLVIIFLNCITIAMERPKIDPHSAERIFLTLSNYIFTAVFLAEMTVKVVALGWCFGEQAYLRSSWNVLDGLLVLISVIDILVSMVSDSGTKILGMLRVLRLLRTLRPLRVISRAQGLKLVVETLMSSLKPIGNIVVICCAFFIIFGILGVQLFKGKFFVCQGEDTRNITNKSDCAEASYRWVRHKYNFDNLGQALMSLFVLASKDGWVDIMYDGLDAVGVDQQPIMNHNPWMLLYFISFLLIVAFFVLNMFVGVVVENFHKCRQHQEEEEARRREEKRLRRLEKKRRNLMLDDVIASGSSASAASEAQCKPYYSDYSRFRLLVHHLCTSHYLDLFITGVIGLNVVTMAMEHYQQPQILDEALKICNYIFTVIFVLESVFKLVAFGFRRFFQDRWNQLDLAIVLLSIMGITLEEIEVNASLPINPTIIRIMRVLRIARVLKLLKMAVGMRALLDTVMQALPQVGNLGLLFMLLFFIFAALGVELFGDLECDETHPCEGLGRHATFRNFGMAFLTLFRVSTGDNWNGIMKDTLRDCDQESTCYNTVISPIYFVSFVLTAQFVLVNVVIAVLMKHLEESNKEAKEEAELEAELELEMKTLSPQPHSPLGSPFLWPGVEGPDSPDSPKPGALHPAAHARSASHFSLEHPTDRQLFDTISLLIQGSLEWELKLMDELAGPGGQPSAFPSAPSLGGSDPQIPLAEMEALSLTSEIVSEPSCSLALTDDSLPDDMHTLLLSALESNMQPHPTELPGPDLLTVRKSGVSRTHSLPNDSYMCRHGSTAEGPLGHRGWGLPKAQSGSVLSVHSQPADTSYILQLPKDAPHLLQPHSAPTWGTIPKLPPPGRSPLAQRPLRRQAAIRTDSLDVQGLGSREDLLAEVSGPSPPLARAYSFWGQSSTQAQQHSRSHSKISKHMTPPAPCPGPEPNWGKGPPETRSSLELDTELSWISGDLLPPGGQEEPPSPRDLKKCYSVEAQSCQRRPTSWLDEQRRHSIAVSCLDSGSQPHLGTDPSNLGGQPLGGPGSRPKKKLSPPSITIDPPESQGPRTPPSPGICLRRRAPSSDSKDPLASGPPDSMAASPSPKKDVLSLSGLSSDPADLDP
human α1H T-type channels, sequence (O95180 whole entry): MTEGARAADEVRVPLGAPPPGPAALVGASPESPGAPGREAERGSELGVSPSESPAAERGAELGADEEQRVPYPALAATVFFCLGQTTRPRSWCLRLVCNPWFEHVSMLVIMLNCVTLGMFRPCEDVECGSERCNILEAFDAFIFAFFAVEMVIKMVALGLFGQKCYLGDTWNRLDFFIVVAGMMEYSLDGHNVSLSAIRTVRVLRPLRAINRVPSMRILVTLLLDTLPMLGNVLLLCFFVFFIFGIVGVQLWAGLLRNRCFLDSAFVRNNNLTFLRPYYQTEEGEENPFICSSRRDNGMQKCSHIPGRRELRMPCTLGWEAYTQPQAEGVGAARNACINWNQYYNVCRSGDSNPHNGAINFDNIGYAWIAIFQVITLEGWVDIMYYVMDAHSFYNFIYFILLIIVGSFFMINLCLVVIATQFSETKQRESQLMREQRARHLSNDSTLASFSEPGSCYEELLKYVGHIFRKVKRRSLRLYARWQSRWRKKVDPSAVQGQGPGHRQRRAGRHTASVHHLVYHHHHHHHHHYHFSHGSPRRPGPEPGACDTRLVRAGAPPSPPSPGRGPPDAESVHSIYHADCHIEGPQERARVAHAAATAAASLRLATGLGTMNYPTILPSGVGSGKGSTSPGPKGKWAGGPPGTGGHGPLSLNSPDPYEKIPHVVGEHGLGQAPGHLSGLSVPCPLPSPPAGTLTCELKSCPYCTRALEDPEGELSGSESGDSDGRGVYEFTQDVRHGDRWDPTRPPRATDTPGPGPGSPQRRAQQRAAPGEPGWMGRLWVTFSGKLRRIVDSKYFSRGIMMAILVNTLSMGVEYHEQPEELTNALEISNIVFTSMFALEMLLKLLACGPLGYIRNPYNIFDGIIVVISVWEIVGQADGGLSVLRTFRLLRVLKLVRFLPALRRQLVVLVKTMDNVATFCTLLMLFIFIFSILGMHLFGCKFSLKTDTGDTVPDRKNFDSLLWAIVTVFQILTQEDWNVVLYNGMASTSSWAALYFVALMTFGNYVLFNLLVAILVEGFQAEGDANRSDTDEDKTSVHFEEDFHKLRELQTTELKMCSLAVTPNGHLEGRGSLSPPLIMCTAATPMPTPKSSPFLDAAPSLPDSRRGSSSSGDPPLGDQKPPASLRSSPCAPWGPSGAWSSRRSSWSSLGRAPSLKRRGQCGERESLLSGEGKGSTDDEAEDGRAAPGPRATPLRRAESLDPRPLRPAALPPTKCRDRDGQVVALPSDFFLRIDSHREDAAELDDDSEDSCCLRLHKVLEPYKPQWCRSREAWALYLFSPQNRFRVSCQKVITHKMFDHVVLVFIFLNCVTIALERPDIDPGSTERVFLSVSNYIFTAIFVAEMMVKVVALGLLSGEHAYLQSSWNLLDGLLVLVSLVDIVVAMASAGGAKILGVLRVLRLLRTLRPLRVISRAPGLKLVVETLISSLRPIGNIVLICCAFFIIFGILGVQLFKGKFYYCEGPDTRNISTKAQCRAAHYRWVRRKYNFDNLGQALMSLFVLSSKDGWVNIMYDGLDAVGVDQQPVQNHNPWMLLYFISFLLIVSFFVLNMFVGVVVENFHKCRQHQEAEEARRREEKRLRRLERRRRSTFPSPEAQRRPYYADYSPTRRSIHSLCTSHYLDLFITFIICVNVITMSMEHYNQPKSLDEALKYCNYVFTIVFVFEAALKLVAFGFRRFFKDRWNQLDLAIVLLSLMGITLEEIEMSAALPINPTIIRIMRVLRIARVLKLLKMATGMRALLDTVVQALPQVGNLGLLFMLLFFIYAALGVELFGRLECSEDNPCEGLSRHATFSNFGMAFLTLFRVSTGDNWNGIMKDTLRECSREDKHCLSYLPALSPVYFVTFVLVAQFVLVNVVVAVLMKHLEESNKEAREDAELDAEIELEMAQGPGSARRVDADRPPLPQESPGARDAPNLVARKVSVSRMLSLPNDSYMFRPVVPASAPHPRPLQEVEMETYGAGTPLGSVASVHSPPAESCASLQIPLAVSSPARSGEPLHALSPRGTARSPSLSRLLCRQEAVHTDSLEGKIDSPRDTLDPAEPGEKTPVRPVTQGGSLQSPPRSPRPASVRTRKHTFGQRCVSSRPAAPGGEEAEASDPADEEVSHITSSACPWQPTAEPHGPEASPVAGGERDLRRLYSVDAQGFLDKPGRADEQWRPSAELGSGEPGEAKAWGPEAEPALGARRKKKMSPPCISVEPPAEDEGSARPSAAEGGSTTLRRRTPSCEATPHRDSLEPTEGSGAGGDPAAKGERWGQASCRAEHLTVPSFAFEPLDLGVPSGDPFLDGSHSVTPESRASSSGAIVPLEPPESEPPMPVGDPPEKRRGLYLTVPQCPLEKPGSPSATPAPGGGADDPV

SMILES | IC50 [1] [nM] | Epilepsy 6 Hz (% protected) 0.25 hr (male CF1 mice) [%] | Epilepsy 6 Hz (% protected) 0.5 hr (male CF1 mice) [%] | Epilepsy 6 Hz (% protected) 1 hr (male CF1 mice) [%] | Epilepsy 6 Hz (% protected) 2 hr (male CF1 mice) [%] | Epilepsy 6 Hz (% protected) 4 hr (male CF1 mice) [%] | EPILEPSY ROTAROD (% IMPAIRED) 0.25 hr (mice [2]) [%] | EPILEPSY ROTAROD (% IMPAIRED) 0.5 hr (mice [2]) [%] | EPILEPSY ROTAROD (% IMPAIRED) 1 hr (mice [2]) [%] | EPILEPSY ROTAROD (% IMPAIRED) 2 hr (mice [2]) [%] | EPILEPSY ROTAROD (% IMPAIRED) 4 hr (mice [2]) [%] | IC50 [3] [nM] | IC50 [4] [nM] | EPILEPSY ROTAROD (% IMPAIRED) 0.25 hr (mice [5]) [%] | EPILEPSY ROTAROD (% IMPAIRED) 0.5 hr (mice [5]) [%] | EPILEPSY ROTAROD (% IMPAIRED) 1 hr (mice [5]) [%] | EPILEPSY ROTAROD (% IMPAIRED) 2 hr (mice [5]) [%] | EPILEPSY ROTAROD (% IMPAIRED) 4 hr (mice [5]) [%] | activity (IC50), T-type channel block (T-type calcium channel)
O=C(NCC1CC(S(=O)(=O)c2cc(F)cc(C(F)(F)F)c2)C1)c1cc(F)cc(Cl)c1 [Compound 396, 3-chloro-5-fluoro-N-(((1R,3R)-3-(3-fluoro-5-(trifluoromethyl)phenylsulfonyl)cyclobutyl)methyl)benzamide] | 940 | 50 | 0 | 0 | 25 | 0 | 0 | 0 | 0 | 0 | 0 |  |  |  |  |  |  |  | 
CS(=O)(=O)c1cc(C(F)(F)F)ccc1C(=O)NCC1CC(S(=O)(=O)c2cccc(C(F)(F)F)c2)C1 [Compound 356, 2-(methylsulfonyl)-4-(trifluoromethyl)-N-(((1R,3R)-3-(3-(trifluoromethyl)phenylsulfonyl)cyclobutyl)methyl)benzamide] | 570 | 25 | 0 | 0 | 0 | 0 | 0 | 0 | 0 | 0 | 0 | 9510 | 3170 |  |  |  |  |  | 
CC(C)S(=O)(=O)c1cc(C(F)(F)F)cnc1C(=O)NC[C@H]1C[C@H](S(=O)(=O)c2cccc(C(F)(F)F)c2)C1 [Compound 374, 3-(isopropylsulfonyl)-5-(trifluoromethyl)-N-(((1R,3R)-3-(3-(trifluoromethyl)phenylsulfonyl)cyclobutyl)methyl)picolinamide] | 250 | 0 | 0 | 0 | 0 | 0 |  |  |  |  |  | 7730 | 2110 | 0 | 0 | 0 | 0 | 0 | 
CC(C)(C1CC(NC(=O)c2cn3cc(C(F)(F)F)ccc3n2)C1)S(=O)(=O)c1cccc(C(F)(F)F)c1 [Compound 438, 6-(trifluoromethyl)-N-((1R,3R)-3-(2-(3-(trifluoromethyl)phenylsulfonyl)propan-2-yl)cyclobutyl)imidazo[1,2-a]pyridine-2-carboxamide] | 400 | 75 | 0 | 0 | 25 | 0 | 0 | 0 | 0 | 0 | 0 |  |  |  |  |  |  |  | 
O=S(=O)(c1cccc(C(F)(F)F)c1)C1CC(c2c[nH]c(C(F)(F)F)n2)C1 [Compound 442, 2-(trifluoromethyl)-4-((1R,3R)-3-(3-(trifluoromethyl)phenylsulfonyl)cyclobutyl)-1H-imidazole] | 2840 | 50 | 25 | 75 | 0 | 0 | 0 | 0 | 0 | 0 | 0 |  |  |  |  |  |  |  | 
COc1cc(F)cc(C(=O)N[C@H]2CC[C@H](S(=O)(=O)c3cccc(C(F)(F)F)c3)CC2)c1 [Compound 59, 3-fluoro-5-methoxy-N-((1R,4R)-4-(3-(trifluoromethyl)phenylsulfonyl)cyclohexyl)benzamide] | 440 |  |  |  |  |  |  |  |  |  |  | 9130 | 8090 |  |  |  |  |  | lowest IC50
O=C(NCC1(O)CCC(S(=O)(=O)c2cccc(C(F)(F)F)c2)CC1)c1ccc(F)c(Cl)c1 [Compound 230, 3-chloro-4-fluoro-N-(((1S,4S)-1-hydroxy-4-(3-(trifluoromethyl)phenylsulfonyl)cyclohexyl)methyl)benzamide] | 790 | 0 | 25 | 25 | 100 | 0 | 0 | 0 | 0 | 0 | 0 | 1180 |  |  |  |  |  |  | 
CS(=O)(=O)c1nc(C(F)(F)F)ccc1C(=O)NCC1CC(S(=O)(=O)c2cccc(C(F)(F)F)c2)C1 [Compound 365, 2-(methylsulfonyl)-6-(trifluoromethyl)-N-(((1R,3R)-3-(3-(trifluoromethyl)phenylsulfonyl)cyclobutyl)methyl)nicotinamide] | 1610 | 25 | 50 | 50 | 25 | 25 |  |  |  |  |  | 6480 | 2190 | 0 | 0 | 0 | 0 | 0 | 
